“Also recorded” adds a separate entry of the source.
How the values were obtained:
Format in all cases: cell-based, monkey
[1] = tested on: CRP2 nuclear localization in CV1 cells; test: Indirect immunofluorescence of V5 epitope-tagged CRP2 localization in transfected CV1 cells; conditions: for CRP2 accumulation in the nucleus: after one hour of treatment; for CRP2 accumulation / localization in the nucleus: summary statement, no concentration given; for Nuclear localization of epitope-tagged CRP2: cytochalasin D 5 μg/ml, latrunculin B not shown
Protocol: (§1) FIGS. 9A-9B show signaling mechanisms involved in CRP2 nuclear localization. In FIG. 9A, there is indirect immunofluorescent analysis of V5 epitope-tagged CRP2 (green) in CV1 cells. Untreated control CV1 cells show global localization of CRP2. […] Fold-activation was determined by comparison to the transfection with empty expression vector in lane 1.
In CV1 fibroblasts, overexpressed wild type CRP2 localizes both in the nucleus and in the cytoplasmic compartments, similar to the subcellular distribution pattern of endogenous CRP2 (Chang et al., 2003). When NLS- or NES-tag is added, the fusion CRP2-NLS or CRP2-NES protein becomes over 90% nuclear- or cytoplasmic-exclusive localized, respectively (FIG. 8A). These reagents allow functional analyses to differentiate nuclear versus cytoplasmic functions of CRP2. […] Nuclear distribution of CRP2 is coincident with reporter gene activation.
(§2) To elucidate the mechanism controlling CRP2 shuttling, the inventors treated transiently transfected monkey CV1 fibroblasts with drugs that either affect cytoskeletal integrity ([…], cytochalasin D, latrunculin B) or are inhibitors of nuclear export (leptomycin B) and looked for changes in the distribution of CRP2.

SM22α promoter = SM22α promoter luciferase reporter assay in CV1 cells
SMA promoter = test: SMA-luciferase reporter transactivation assay in CV1 cells; conditions: CV1 cells cotransfected with CRP2, SRF and GATA6, drug added 12 h after cotransfection, lysates 6-24 h post-drug
actin cytoskeleton = test: Actin cytoskeleton integrity in CV1 cells (rhodamine phalloidin)
Protocol: as §1, §2

SMILES | cells with CRP2 nuclear localization ([1]; 10 μM in growth medium of transfected CV1 fibroblasts) | CRP2 accumulation in the nucleus [1] | CRP2 accumulation / localization in the nucleus [1] | SM22α promoter activity after drug treatment (SM22α promoter) | SMA gene activation / SMA-Luc reporter activity after drug treatment (SMA promoter) | SMA gene activation / SMA-Luc reporter activity after drug treatment (SMA promoter; listed as Y-26732) | transfected CV1 cells displaying CRP2 accumulation in the nucleus ([1]; 2 hr of 10 μg/ml treatment) | Nuclear localization of epitope-tagged CRP2 [1] | dissolution of the actin cytoskeleton (actin cytoskeleton)
C[C@@H](N)[C@H]1CC[C@H](C(=O)Nc2ccncc2)CC1 [Y-27632] | 68% | accumulate in the nucleus | facilitated CRP2 nuclear localization | further up-regulated | further upregulates; also recorded: further up-regulated | increases |  |  | 
CCC(=C/[C@H](C)C/C=C/C(C)=C/[C@@H](C)C(=O)[C@@H](C)[C@H](O)[C@@H](C)C/C(C)=C/C(=O)O)/C=C/[C@@H]1OC(=O)C=C[C@@H]1C [leptomycin B] |  | accumulate in the nucleus | induced CRP2 accumulation in the nucleus |  |  |  | 82% |  | 
C/C1=C/C(=O)O[C@@H]2C[C@@H](CC[C@H](C)/C=C\CC1)O[C@@](O)([C@@H]1CSC(=O)N1)C2 [latrunculin B] |  |  |  |  |  |  |  | observed | completely dissolved the actin cytoskeleton within one hour
C=C1[C@@H](C)[C@H]2[C@H](Cc3ccccc3)NC(=O)[C@]23[C@H](OC(C)=O)/C=C/[C@@](C)(O)C(=O)[C@@H](C)C/C=C/[C@H]3[C@@H]1O [cytochalasin D] |  | accumulate in the nucleus |  |  |  |  |  | observed | completely dissolved the actin cytoskeleton within one hour

Reference: patent US7811820B2, “Smooth muscle cell differentiation with CRP, SRF and GATA factors” (Baylor College of Medicine, priority 2003, dated 2010)
